{"source": "patent KR20110062313A", "about": "“시티딘을 포함하는 약제학적 조성물” (주식회사 머젠스, priority 2009, dated 2011)", "key": {"[1]": {"tested_on": "HCE-T (human cornea epithelial cell) (HCE-T(사람 각막 상피 세포))", "test": "Hyaluronic acid amount in HCE-T medium by hyaluronan-ELISA", "assay_type": "cell-based", "parameters": "dose or concentration left out as unconfirmed", "conditions": "1 ml medium containing cytidine, 72 h, 37℃"}, "[2]": {"tested_on": "dry eye model in CBA/J mice (CBA/J 마우스의 건성안 모델)", "assay_type": "in vivo, mouse"}}, "note": "Values joined by “and” are separate entries in the source; they are usually repeats but may differ in a detail not shown here. Identical values can stand only once."}
{"smiles": "Nc1ccn([C@@H]2O[C@H](CO)[C@@H](O)[C@H]2O)c(=O)n1", "note": "[시티딘]", "values": [{"measurement": "amount of hyaluronic acid (mean)", "setting": "[1]", "value": 88.9}, {"measurement": "amount of hyaluronic acid compared with control group", "setting": "[1]; versus control", "value": "히아루론산의 양이 대조군에 비하여 증가하지 않음"}, {"measurement": "tear volume (mean)", "setting": "[2]; N 8", "value": "7.39 and 4.54 and 6.18 and 7.03"}, {"measurement": "tear volume compared with control group", "setting": "[2]; mouse, in vivo", "value": "유의하게 눈물의 양이 증가"}, {"measurement": "tear volume compared with normal group", "setting": "[2]; mouse, in vivo", "value": "정상군에 해당하는 눈물량의 분비"}]}
